Assay results: US8865748B2, “Compounds and compositions for stabilizing hypoxia inducible factor-2 alpha as a method for treating cancer” (Akebia Therapeutics Inc., priority 2011, dated 2014)

Experiments:
VEGF [1] = test: VEGF production by human peripheral blood monocytes (ELISA, real-time PCR); format: cell-based; settings: FIG. 11C
Procedure: (§1) Human peripheral blood mononuclear cells (PBMCs) were isolated from fresh peripheral blood leukocyte source packs (American Red Cross, Columbus Ohio) by density gradient centrifugation over Lymphocyte Separation Medium (Cellgro). Monocytes were purified from total PBMCs by layering over FBS. Monocytes were cultured in endotoxin-free RPMI-1640 supplemented with 1% fetal bovine serum (FBS), 0.1% human serum albumin (HSA), and 10 μg/mL of the endotoxin inhibitor polymyxin B. In some experiments, freshly isolated monocytes were differentiated into macrophages by three-day culture in media containing 10% FBS, 1% PSA (penicillin G sodium, streptomycin sulfate, and amphotericin B), and 20 ng/mL M-CSF. Macrophages were serum-starved for 2 hours prior to stimulation. Monocytes or monocyte-derived macrophages were treated for 24 hours with 10 ng/mL GM-CSF, 10 μM disclosed HIF-2α stabilizer, or an equivalent volume of the vehicle controls (PBS or DMSO, respectively). Cell-free culture supernatants were harvested and analyzed for VEGF or sVEGFR-1 by ELISA (R&D Systems).
(§2) Human monocytes were left untreated or were stimulated with 100 ng/mL GM-CSF at normoxia or at 0.5% O2. At various time-points, cells were harvested in Trizol reagent (Invitrogen) and RNA was extracted in chloroform and then purified using the RNeasy Minikit (Qiagen). In murine studies, organs harvested at the time of euthanasia were flash-frozen in liquid nitrogen, pulverized in liquid nitrogen, and then dissolved in Trizol. cDNA was generated from 1 μg of RNA using the Superscript First Strand Synthesis System (Invitrogen) and used for real-time PCR using previously described primers and SYBR Green PCR Master Mix (Applied Biosciences), according to the manufacturer's instructions. Data were analyzed according to the comparative threshold method and normalized against the β-actin internal control transcript. Results are semi-quantitative and represent the fold difference in transcript levels in a particular sample as compared with levels in untreated cells from the same donor.
VEGF protein was undetectable in the supernatants of GM-CSF-stimulated monocytes, due to neutralization of VEGF by sVEGFR-1 (FIG. 11C).
Since monocyte production of VEGF was dependent on HIF-1α, the inventors herein determined whether selective stabilization of HIF-1α via inhibition of PHD2 would increase monocyte production of VEGF but not sVEGFR-1. In order to make such determination, human peripheral blood monocytes were stimulated with GM-CSF in the presence of a selective inhibitor of PHD2 which results in the stabilization of HIF-1α.

sVEGFR-1 = sVEGFR-1 production by human peripheral blood monocytes (ELISA, real-time PCR); format: cell-based; settings: GM-CSF stimulation; FIG. 11D
Procedure: as §1
Human monocytes were left untreated or were stimulated with 100 ng/mL GM-CSF at normoxia or at 0.5% O2. At various time-points, cells were harvested in Trizol reagent (Invitrogen) and RNA was extracted in chloroform and then purified using the RNeasy Minikit (Qiagen). […] Data were analyzed according to the comparative threshold method and normalized against the β-actin internal control transcript. Results are semi-quantitative and represent the fold difference in transcript levels in a particular sample as compared with levels in untreated cells from the same donor.
Since monocyte production of VEGF was dependent on HIF-1α, the inventors herein determined whether selective stabilization of HIF-1α via inhibition of PHD2 would increase monocyte production of VEGF but not sVEGFR-1. […]

VEGF [2] = test: VEGF mRNA within B16F10 tumors (real-time PCR); format: in vivo, mice; settings: FIG. 13B; p=0.490
Procedure: as §2
6-8-week-old C57BL/6 mice were injected with 1×10^5 B16F10 murine melanoma cells murine subcutaneously on the left flank. […] Tumor diameters were measured 3 times per week with calipers, and tumor volumes will be calculated as follows: Tumor volume=0.5×[(large diameter)×(small diameter)^2]. […]

B16F10 melanoma tumors = test: Murine melanoma tumor model (B16F10 in C57BL/6 mice); format: in vivo
Procedure: Mice were injected with 1×10^5 B16F10 murine melanoma cells murine subcutaneously on the left flank. Once tumors become palpable (approximately 5 days), mice were randomly allocated to receive treatment with either: 20% polyethylene glycol (PEG) in 5% […] (vehicle control for the disclosed HIF-2α stabilizer) and PBS (vehicle control for GM-CSF), 20% PEG and GM-CSF (100 ng per mouse in a 50 μL volume), the disclosed HIF-2α stabilizer (17.5 mg/kg in a 100 μL volume) and PBS, or the disclosed HIF-2α stabilizer and GM-CSF (same doses). The PBS and GM-CSF were administered intratumorally, while the 20% PEG and the disclosed HIF-2α stabilizer were administered intraperitoneally. Mice were treated 3 times per week until tumors reached a size of 20 mm in any dimension (approximately 2.5 weeks), at which point mice were euthanized, in accordance with institutional policy. Tumor diameters were measured 3 times per week with calipers, and tumor volumes were calculated as follows: Tumor volume=0.5×[(large diameter)×(small diameter)^2].
6-8-week-old C57BL/6 mice were injected with 1×10^5 B16F10 murine melanoma cells murine subcutaneously on the left flank. Once tumors become palpable (approximately 5 days), mice were randomly allocated to receive treatment with either: 20% PEG-400 in 5% sucrose (vehicle for disclosed HIF-2α stabilizer) and PBS (vehicle for GM-CSF), 20% PEG-400 and GM-CSF (100 ng per mouse in a 50 μL volume), disclosed HIF-2α stabilizer (17.5 mg/kg mouse weight in a 100 μL volume) and PBS, or the disclosed HIF-2α stabilizer and GM-CSF (same concentrations). The disclosed HIF-2α stabilizer (or the vehicle control) was administered intraperitoneally, while GM-CSF (or the vehicle control) was administered intratumorally. Mice were treated […] 3 times per week until tumors reached a size of 20 mm in any dimension (approximately 2.5 weeks), at which point mice were be euthanized, in accordance with institutional policy. Tumor diameters were measured 3 times per week with calipers, and tumor volumes will be calculated as follows: Tumor volume=0.5×[(large diameter)×(small diameter)^2]. For experiments analyzing the effect of neutralizing sVEGFR-1 in combination with disclosed HIF-2α stabilizer treatment, mice were treated intraperitoneally 3×/week with either disclosed HIF-2α stabilizer or vehicle control, and intratumorally with either 4 μg anti-VEGFR-1 neutralizing antibody (R&D Systems) or 4 μg polyclonal goat IgG isotype control (Santa Cruz Biotechnology) in a 50 μL volume. All protocols were approved by the Ohio State University Animal Care and Use Committee, and mice were treated in accordance with institutional guidelines for animal care.
The ANOVA test was used to compare independent measurements between multiple treatment groups. The data was log-transformed to normalize the variance across groups. P-values were adjusted using the Holm's procedure to conserve the type I error at 0.05 due to the multiple comparisons. For tumor growth data, changes in tumor volume over time were assessed via a longitudinal model. Tumor values were log-transformed, and estimated slopes (changes in tumor volume over time) were calculated with 95% confidence intervals. Estimated differences in tumor volume were calculated by a random-effects regression of the longitudinal data. For all analyses, p≦0.05 was considered statistically significant.
To confirm that the modulation of tumor growth and angiogenesis was due to sVEGFR-1 production in response to the disclosed HIF-2α stabilizer, mice were treated with the disclosed HIF-2α stabilizer in the presence or absence of an sVEGFR-1 neutralizing Ab.
6-8-week-old C57BL/6 mice or SCID mice were injected with 1×10^5 B16F10 murine melanoma cells or 1×10^6 A375 human melanoma cells, respectively, subcutaneously on the left flank. […]

For “GM-CSF: granulocyte-macrophage colony-stimulating factor”, the “VEGF production, transcript levels by real-time PCR” value (VEGF [1]; GM-CSF stimulation) was “increased”, the “VEGF protein in supernatants” value (VEGF [1]; GM-CSF-stimulated monocytes, ELISA detects free VEGF only) was “undetectable” and the “monocyte production of sVEGFR-1” value (sVEGFR-1) was “induced”. For the same substance, the “levels of intratumoral VEGF over vehicle control-treated mice” value (VEGF [2]) was “failed to increase”, the “tumor growth (tumor volume)” value (B16F10 melanoma tumors; FIG. 3, stabilizer 17 mg/kg I.P., GM-CSF 100 ng per mouse I.T., 3 times per week, vs. PBS control) was “reduction in tumor volume” and the “tumor volume reduction, GM-CSF administered I.T. vs. I.P.” value (B16F10 melanoma tumors; FIG. 4, stabilizer 17 mg/kg delivered I.P. in all cases, no control group) was “greater reduction of tumor volume”. The “average tumor volumes vs. vehicle controls” value (B16F10 melanoma tumors; day 16 of treatment, GM-CSF 100 ng/mouse intratumoral or stabilizer 17.5 mg/kg intraperitoneal, 3x/week, each p<0.001) was “significantly smaller”.
